Test results: PMC7504728, “Bioactivities of Lyngbyabellins from Cyanobacteria of Moorea and Okeania Genera” (Molecules, 2020)
pIC50: −log10 of the molar value. Like-named read-outs stand apart in the source and are kept apart here.

Tests used:
[1] = test system: KB, LoVo; conditions: range over KB; cited from earlier work
Source text: (§1) Table 2 Diversity of biological activities reported for Lyngbyabellins in the literature from 2000 to 2020. | column: IC50 (µM)

[2] = test system: Amphibalanus amphitrite barnacle larvae; assay: Antifouling (settlement inhibition) assay on A. amphitrite cyprids; type: in vivo
Experimental: As for all the compounds, the activity remained after 120 h of exposure.
The antifouling activity of the compounds was determined according to a procedure reported previously. Briefly, the newly developed cyprids of A. amphitrite were tested against several different concentrations of the isolated compounds (1–5) (0.03–10 μg/mL) in triplicate (n = 3). The assays were conducted using 24-well polystyrene culture plates, with each well containing 2 mL seawater and six cyprids. […] The total number of dead cyprids was counted after 120 h of exposure. Antifouling activity was expressed as an EC50 according to Probit analysis. CuSO4 was used as a positive control and 80% filtered (0.20 µm of pore filter) natural seawater (diluted with deionized water) as a negative control.

[3] = test system: H460, Neuro-2a, MCF7; conditions: range over H460, Neuro-2a, cited from earlier work
Source text: as §1

[4] = test system: MCF7 breast cancer cells; assay: Cytotoxicity MTT assay on MCF7 breast cancer cells; type: cell-based, human; conditions: MTT after 72 h incubation; for pIC50: 37 °C, read-out: IC50, cytotoxicity with respect to MCF7 breast cancer cells
Experimental: The cytotoxicity of the compounds was determined according to a procedure reported previously. MCF7 breast cancer cells were maintained in RPMI-1640 medium with 10% fetal bovine serum (FBS). The cells were plated into 96-well plates with a density of 1.0 × 10^4 cells per well. After 24 h incubation, the cells were exposed to different concentrations of compounds, with cisplatin as a positive control and with 1% filtered ethanol as a negative control. The MTT assay was conducted after 72 h of incubation at 37 °C and 5% CO2.

[5] = test system: Amphibalanus amphitrite barnacle larvae; parameters: method as in PMID 29019684; conditions: A.amphitrite barnacle cypris; cited from earlier work
[6] = test system: MCF7 breast cancer cells; conditions: cited from earlier work
Source text: These differences in cytotoxicity were attributed to the dissimilarities in their structures.

[7] = test system: Plasmodium; conditions: antimalarial; pLDH; cited from earlier work
Source text: (§2) Table 1 Structural diversity and antimalarial potential of secondary metabolites derived from cyanobacteria. | column: IC50 (µM) || As part of an effort to identify antiplasmodial and antifouling metabolites, two cyanobacteria from two geographically distinct environments were studied: a Malaysian Moorea bouillonii and a Red Sea Okeania sp. Moorea and Okeania genera were delineated from the Lyngbya genus. As phylogenetically close genera, they produce similar compounds. In this study, the lyngbyabellin family depsipeptides were isolated from Moorea bouillonii and Okeania sp. These kinds of compounds were initially found in the sea hare Dolabella auricularia after being identified from cyanobacterial origins as p ...

[8] = test system: Plasmodium; conditions: antimalarial, cited from earlier work
Source text: Table 1 Structural diversity and antimalarial potential of secondary metabolites derived from cyanobacteria. | column: IC50 (µM)

[9] = test system: Plasmodium falciparum strain FCR-3; assay: Antiplasmodial assay, Giemsa staining; type: cell-based
Experimental: Compound 1 isolated from Okeania sp., and compounds 6 and 7 from M. bouillonii were tested against the malaria parasite (P. falciparum). […] The assay was repeated three times in the concentration range of 0.05–10 (μg/mL). It is noteworthy that the mechanisms of antiplasmodial compounds isolated from M. bouillonii impeding the growth of Plasmodium are still unclear. […] However, as 1 and 7 were reported as cytotoxic towards cancer cells, we hypothesized that they act in the same way on erythrocytes, which distorts the results of the antimalarial assay.
The Giemsa staining method previously described by Aydin-Schmidt was used to evaluate the ability of compounds to inhibit the malaria parasite. A synchronized culture of Plasmodium falciparum strain FCR-3, the late-ring stage, was used (parasitemia 2%) for this assay. A series of compound concentrations were applied in 96-well microplates and incubated for 72 h at 37 °C in a reduced oxygen atmosphere. Compounds 1, 6, and 7 were dissolved in DMSO and tested in triplicate at three separate times. Chloroquine was used as a positive control and cultured medium with 1% DMSO (final concentration of solvent in all compound tested) as a negative control. Each assay was conducted in triplicate (n = 3). After 72 h, the parasitic level was evaluated by Giemsa and light microscopy. The inhibition level of compounds against Plasmodium was calculated using the formula previously reported.

[10] = test system: H460; conditions: cited from earlier work
Source text: as §1

[11] = test system: H460, Neuro-2a; conditions: range over H460, Neuro-2a; cited from earlier work
Source text: as §1

[12] = test system: HT29, HeLA; conditions: range over HT29, HeLA; cited from earlier work
Source text: as §1

[13] = test system: H460, HCT116; conditions: range over H460, HCT116; cited from earlier work
Source text: as §1

[14] = test system: HT29, HeLA, MCF7; conditions: range over HT29, HeLA, MCF7 value from current study; cited from earlier work
Source text: as §1

[15] = test system: KB; conditions: cited from earlier work
Source text: as §1

[16] = test system: HT29, HeLA, KB, LoVo; conditions: range over HT29, HeLA; cited from earlier work
Source text: as §1

[17] = test system: P. falciparum (liver-stage); conditions: cited from earlier work
Source text: as §1

[18] = test system: HT29, HeLA, CA46, PtK2; conditions: range over HT29, HeLA; cited from earlier work
Source text: as §1

[19] = test system: various cancer cell lines; conditions: cited from earlier work
Source text: as §2, with “As” for “Table 1 Structural diversity and antimalarial potential of secondary metabolites derived from cyanobacteria. | column: IC50 (µM) || As”

[20] = A.amphitrite barnacle cypris, current study
[21] = previous study, read-out: IC50, cytotoxicity with respect to MCF7 breast cancer cells
[22] = strain FCR-3, late-ring (intraerythrocytic) stage, parasitemia 2%, 72 h, 37 °C, 0.05–10 μg/mL, repeated three times, triplicate, read-out: IC50 against malaria parasite (P. falciparum)

Lyngbyabellin C
pIC50 [1]: 5.28 to 5.68

lyngbyabellin H [Compound 4]
Antifouling activity at 10 µg/mL ([2]; 10 µg/mL, 48 h exposure, triplicate (n = 3)): inactive
EC50(µg/mL) [2, 20]: Inactive
pIC50 ([3]; MCF7 value from current study): 5.85 to 7.15
pIC50 [4]: 7.15

lyngbyabellin O [Compound 2]
EC50 [5]: 0.24 µg/mL
IC50 (µM) ([6]; MCF7): Inactive
pIC50 [6, 21]: < 3.80

Mabunamide
pIC50 [7]: 5.85

Gallinamide A
pIC50 ([8]; Pico-Green): 5.08

Carmabin A
pIC50 ([8]; Pico-Green): 5.37

Companeramide A
pIC50 ([8]; Sybr Green): 5.24

homohydroxydolabellin [Compound 6]
Cytotoxicity towards MCF7 cells [4]: > 50 µg/mL
Cytotoxicity with respect to MCF7 breast cancer cells (in words) [4]: non-cytotoxicity
pIC50 [9, 22]: 5.19

Kakeromamide B
pIC50 ([8]; Sybr Green): 5.05

Lyngbyabellin K
IC50 (µM) [10]: Inactive

Lyngbyabellin I
pIC50 [11]: 6.00 to 6.15

Lyngbyabellin M
IC50 (µM) [10]: Inactive

Venturamide A
pIC50 ([8]; Pico-Green): 5.09

C/C1=C/C(=O)O[C@H](C(C)(C)C)CCC[C@H](O)CCC[C@H](O)CCC[C@H](O)CCC[C@@H](O)C[C@@H](O)C[C@H](O)CCC[C@@H](O)CCC[C@@H](O)C[C@@H](O)CCCCC1 [Bastimolide A]
pIC50 ([8]; Sybr Green): 6.57

Ulongamide A
pIC50 ([8]; Sybr Green): 6.00

lyngbyabellin P [Compound 3]
EC50 [5]: 0.62 µg/mL
pIC50 ([6]; MCF7, read-out: IC50): 5.05

Hoshinoamide A
pIC50 [7]: 5.28

Lyngbyabellin L
IC50 (µM) [10]: Inactive

C/C1=C/C(=O)O[C@H](CCC[C@@H](O)CCC[C@@H](O)CCC[C@@H](O)CCC[C@H](O)C(C)(C)C)C[C@@H](O)C[C@H](O)CCC[C@@H](O)CCC[C@@H](O)C[C@@H](O)CCCCC1 [Bastimolide B]
pIC50 ([8]; Pico-Green): 5.24

Dolastatin 15
pIC50 [7]: 8.62

Lyngbyabellin J
pIC50 [12]: 7.27 to 7.39

lyngbyabellin G [Compound 1]
EC50 [5]: 4.41 µg/mL
pIC50 [3]: 3.92 to 5.66
pIC50 [9, 22]: 5.96
pIC50 [6, 21]: 3.92

Lyngbyabellin N
pIC50 [13]: 5.74 to 8.32

Lyngbyabellin F
pIC50 [11]: 5.74 to 6.00

27-deoxylyngbyabellin A [Compound 5]
EC50 [2, 20]: 0.09 µg/mL
Toxicity to A.amphitrite barnacle cypris (remark in EC50 cell) ([2]; current study): 0.09 (but toxic)
Toxicity to larvae ([2]; exposed to 1 µg/mL, dead cyprids counted after 120 h of exposure): almost all the larvae were dead
pIC50 [14]: 6.51 to 8.14
pIC50 [4]: 6.51

Lyngbyabellin D
pIC50 [15]: 7.00

Ikoamide
pIC50 [7]: 6.85

lyngbyabellin A [Compound 7]
pIC50 ([8]; Sybr Green): 8.82
pIC50 [16]: 6.46 to 7.68
pIC50 [17]: 8.82
pIC50 ([9]; P.falciparum (intraerythrocytic stage), current study, read-out: IC50): 6.52

Dragomabin
pIC50 ([8]; Pico-Green): 5.22

Lyngbyabellin E
pIC50 [11]: 5.92 to 6.40

Lyngbyabellin B
pIC50 [18]: 5.96 to 7.00

Dolastatin 10
pIC50 [7]: 10.00
Selectivity index against various cancer cell lines [19]: ≤ 1
